Laboratory results taken from ChEMBL document CHEMBL1152844, “Synthesis and anti-HIV studies of 2- and 3-adamantyl-substituted thiazolidin-4-ones” (Eur J Med Chem, 2009).
pEC50: −log10 of the molar value. The source made the active and inactive calls. The calls are words filed in the database; no cut-off is given here.

Key:
Vaccinia virus = experiment: Antiviral activity against Vaccinia virus infected in HEL cells; type: functional, organism-based; conditions: Orthopoxvirus vaccinia
Human alphaherpesvirus 1 = experiment: Antiviral activity against Herpes simplex virus type 1 infected in HEL cells; type: functional, organism-based
Sindbis virus = experiment: Antiviral activity against Sindbis virus infected in african green monkey Vero cells; type: functional, organism-based
[1] = tested on: Human immunodeficiency virus 1; experiment: Antiviral activity against HIV1 3B infected in human CEM cells assessed as inhibition of virus-induced cytopathicity after 4 days; type: functional, organism-based; conditions: Human immunodeficiency virus 1, 3B, CCRF-CEM, 96 h
Feline coronavirus = experiment: Antiviral activity against Feline coronavirus infected in crandel feline kidney cells; type: functional, organism-based
[2] = tested on: Human immunodeficiency virus 2; experiment: Antiviral activity against HIV2 ROD infected in human CEM cells assessed as inhibition of virus-induced cytopathicity after 4 days; type: functional, organism-based; conditions: Human immunodeficiency virus 2, ROD, CCRF-CEM, 96 h
[3] = tested on: Respiratory syncytial virus; experiment: Antiviral activity against Respiratory syncytial virus infected in human HeLa cells; type: functional, organism-based
CCRF-CEM = experiment: Cytotoxicity against HIV-infected human CEM cells; type: cell-based; conditions: ccrf-cem
[4] = tested on: Vesicular stomatitis virus; experiment: Antiviral activity against Vesicular stomatitis virus infected in HEL cells; type: functional, organism-based
[5] = Selectivity index, ratio of CC50 for human CEM cells to EC50 for HIV1 3B; type: toxicity, cell-based, CCRF-CEM; conditions: read-out: Ratio CC50/EC50
Coxsackievirus B4 [6] = experiment: Antiviral activity against Coxsackievirus B4 infected in african green monkey Vero cells; type: functional, organism-based
[7] = tested on: Vesicular stomatitis virus; experiment: Antiviral activity against Vesicular stomatitis virus infected in human HeLa cells; type: functional, organism-based
[8] = tested on: Mammalian orthoreovirus 1; experiment: Antiviral activity against Reovirus 1 infected in african green monkey Vero cells; type: functional, organism-based
Punta Toro virus = experiment: Antiviral activity against Punta Toro virus infected in african green monkey Vero cells; type: functional, organism-based
Influenza B virus = experiment: Antiviral activity against Influenza virus type B infected in MDCK cells; type: functional, organism-based
Coxsackievirus B4 [9] = experiment: Antiviral activity against Coxsackievirus B4 infected in human HeLa cells; type: functional, organism-based
Influenza A virus [10] = experiment: Antiviral activity against Influenza virus type A H3N2 infected in MDCK cells; type: functional, organism-based
Human alphaherpesvirus 2 = experiment: Antiviral activity against Herpes simplex virus type 2 infected in HEL cells; type: functional, organism-based
Human respirovirus 3 = experiment: Antiviral activity against Parainfluenza virus type 3 infected in african green monkey Vero cells; type: functional, organism-based
Influenza A virus [11] = experiment: Antiviral activity against Influenza virus type A H1N1 infected in MDCK cells; type: functional, organism-based

| SMILES | Activity (Vaccinia virus) | Activity (Human alphaherpesvirus 1) | Activity (Sindbis virus) | pEC50 [1] | Activity (Feline coronavirus) | pEC50 [2] | Activity [3] | CC50 (CCRF-CEM) | Activity [4] | selectivity ratio [5] | Activity (Coxsackievirus B4 [6]) | Activity [7] | Activity [8] | Activity (Punta Toro virus) | Activity (Influenza B virus) | Activity (Coxsackievirus B4 [9]) | Activity (Influenza A virus [10]) | Activity (Human alphaherpesvirus 2) | Activity (Human respirovirus 3) | Activity (Influenza A virus [11]) |
| --- | --- | --- | --- | --- | --- | --- | --- | --- | --- | --- | --- | --- | --- | --- | --- | --- | --- | --- | --- | --- |
| CN(C)CCN1C(=O)CSC1CC12CC3CC(CC(C3)C1)C2 (centres undefined) | inactive | inactive | inactive | 4.28 | inactive | ≤ 4.21 | inactive | 77 µM | inactive | < 1.4 | inactive | inactive | inactive | inactive | inactive | inactive | inactive | inactive | inactive | inactive |
| O=C1CSC(c2c(F)cccc2Cl)N1CCC12CC3CC(CC(C3)C1)C2 (centres undefined) | inactive | inactive | inactive | 5.42 | inactive | ≤ 5.00 | inactive | 18.5 µM | inactive | 4.7 | inactive | inactive | inactive | inactive | inactive | inactive | inactive | inactive | inactive | inactive |
| COc1cc(C2SCC(=O)N2CCC23CC4CC(CC(C4)C2)C3)cc(OC)c1OC (centres undefined) | inactive | inactive | inactive | 5.11 | inactive | 5.19 | inactive | 11.3 µM | inactive | 1.4 | inactive | inactive | inactive | inactive | inactive | inactive | inactive | inactive | inactive | inactive |
| Cc1ccnc2c1NC(=O)c1cccnc1N2C1CC1 [NEVIRAPINE] |  |  |  |  |  | < 4.30 |  | > 50 µM |  |  |  |  |  |  |  |  |  |  |  |  |
| Cc1cc(Cl)nc(N2C(=O)CSC2CC23CC4CC(CC(C4)C2)C3)n1 (centres undefined) | inactive | inactive | inactive | < 4.28 | inactive | ≤ 4.28 | inactive | 102 µM | inactive | < 1.9 | inactive | inactive | inactive | inactive | inactive | inactive | inactive | inactive | inactive | inactive |
| O=C1CSC(CC23CC4CC(CC(C4)C2)C3)N1CCN1CCCC1 (centres undefined) | inactive | inactive | inactive | 4.31 | inactive | ≤ 4.24 | inactive | 77 µM | inactive | 1.6 | inactive | inactive | inactive | inactive | inactive | inactive | inactive | inactive | inactive | inactive |
| Cc1cc(N2C(=O)CSC2C23CC4CC(CC(C4)C2)C3)nc(C)n1 (centres undefined) | inactive | inactive | inactive | ≤ 4.24 | inactive | ≤ 4.24 | inactive | 94 µM | inactive | < 1.6 | inactive | inactive | inactive | inactive | inactive | inactive | inactive | inactive | inactive | inactive |
| Cc1cc(N2C(=O)CSC2CC23CC4CC(CC(C4)C2)C3)nc(C)n1 (centres undefined) | inactive | inactive | inactive | ≤ 4.95 | inactive | ≤ 4.95 | inactive | 22.1 µM | inactive | < 1.9 | inactive | inactive | inactive | inactive | inactive | inactive | inactive | inactive | inactive | inactive |
| Cc1ccnc(N2C(=O)CSC2CC23CC4CC(CC(C4)C2)C3)c1 (centres undefined) | inactive | inactive | inactive | 4.74 | inactive | 4.66 | inactive | 29.3 µM | inactive | 1.6 | inactive | inactive | inactive | inactive | inactive | inactive | inactive | inactive | inactive | inactive |
| Cc1cc(C)nc(N2C(=O)CSC2CC23CC4CC(CC(C4)C2)C3)c1 (centres undefined) | inactive | inactive | inactive | < 4.27 | inactive | ≤ 4.27 | inactive | 115 µM | inactive | < 2 | inactive | inactive | inactive | inactive | inactive | inactive | inactive | inactive | inactive | inactive |
| COc1cc(C2SCC(=O)N2CC23CC4CC(CC(C4)C2)C3)cc(OC)c1OC (centres undefined) | inactive | inactive | inactive | ≤ 4.96 | inactive | ≤ 4.96 | inactive | 18 µM | inactive | < 1.6 | inactive | inactive | inactive | inactive | inactive | inactive | inactive | inactive | inactive | inactive |
| Cc1ccnc(N2C(=O)CSC2CC23CC4CC(CC(C4)C2)C3)n1 (centres undefined) | inactive | inactive | inactive | ≤ 4.94 | inactive | 4.63 | inactive | 27.3 µM | inactive | < 2.3 | inactive | inactive | inactive | inactive | inactive | inactive | inactive | inactive | inactive | inactive |
| O=c1[nH]cnc2c1ncn2[C@H]1CC[C@@H](CO)O1 [DIDANOSINE] |  |  |  |  |  |  |  | > 250 µM |  | > 54 |  |  |  |  |  |  |  |  |  |  |
| Cc1cc(C)nc(N2C(=O)CSC2CC23CC4CC(CC(C4)C2)C3)n1 (centres undefined) | inactive | inactive | inactive | 5.07 | inactive | 4.52 | inactive | 27 µM | inactive | 3 | inactive | inactive | inactive | inactive | inactive | inactive | inactive | inactive | inactive | inactive |
